Laboratory results taken from patent publication US20070037882A1, “Remedy for cerebral neurodegenerative diseases using ppar agonist” (Astellas Pharma Inc., priority 2003, published 2007).

Columns and labels:
[1] = test system: SH-SY5Y cells; assay: Thapsigargin-induced cellular death model, dead cells by LDH assay; type: cell-based, human; conditions: thapsigargin + (100 nM), 24 h, concentration not given
Experimental: SH-SY5Y cells were plated on a 96-well plate (70,000 cell/well in 100 μl DMEM low glucose 10% fetal bovine serum) for overnight culturing, from which the culture medium was removed with an aspirator. Then, DMEM without serum was added at 50 μl/well. […] 2 hours later, DMEM without serum containing 600 nM thapsigargin was added at 20 μl/well. (Thapsigargin to a final 100 nM concentration) (For a control, DMEM without serum alone was added.) 24 hours later, the absorbance at 490 nm was assayed with a cytotoxicity detection kit (Roche) to assay the LDH activity. […] An apparent correlation between the result of the viable cell count as determined by MTT assay in Example 1 and the LDH activity is shown. The above results clearly indicate that the PPARδ agonists are effective on the suppression of the thapsigargin-induced cellular death.

[2] = test system: SH-SY5Y cells; assay: MPP+-induced cellular death model, dead cells by LDH assay; type: cell-based, human; conditions: for LDH release A490: MPP+ + (3 mM), 24 h; for cytotoxicity (in words): concentration of 100 μM, MPP+ model
Experimental: SH-SY5Y cells were spread on a 96-well plate (70,000 cell/well in 100 μl DMEM low glucose 10% fetal bovine serum) for overnight culturing, from which the culture medium was removed with an aspirator. Then, DMEM without serum was added at 50 μl/well. […] 2 hours later, DMEM without serum containing 18 mM MPP^+ was added at 20 μl/well. (MPP^+ to a final 3 mM concentration) (For a control, DMEM without serum alone was added.)
24 hours later, the dead cell count was calculated on the basis of the LDH activity assayed with a cytotoxicity detection kit (Roche). […] The results reveal that the PPARδ agonists are effective on the suppression of MPP^+-induced cellular death.

[3] = test system: murine MPTP Parkinson's model; assay: Murine MPTP Parkinson's model, striate body DA and metabolites; type: in vivo, mice; conditions: for DA content per wet weight of striate body / DOPAC content per wet weight of striate body / HVA content per wet weight of striate body / Resumption ratio of content of DA / Resumption ratio of content of DOPAC / Resumption ratio of content of HVA: MPTP +; for DA content per wet weight of striate body / DOPAC content per wet weight of striate body / HVA content per wet weight of striate body: 4 days after MPTP
[4] = test system: GAL4-human PPARα fusion protein; assay: GAL4 reporter gene assay in CV-1 cells, human PPARα; type: cell-based; conditions: first 'Human PPAR-•' line (taken as α), pG5luc reporter
[5] = test system: GAL4-human PPARγ fusion protein; assay: GAL4 reporter gene assay in CV-1 cells, human PPARγ; type: cell-based; conditions: second 'Human PPAR-•' line (taken as γ), pG5luc reporter
[6] = test system: GAL4-human PPARδ fusion protein; assay: GAL4 reporter gene assay in CV-1 cells, human PPARδ; type: cell-based; conditions: third 'Human PPAR-•' line (taken as δ), pG5luc reporter
[7] = test system: GAL4-murine PPARα fusion protein; assay: GAL4 reporter gene assay in CV-1 cells, murine PPARα; type: cell-based; conditions: first 'Murine PPAR-•' line (taken as α), pG5luc reporter
[8] = test system: GAL4-murine PPARγ fusion protein; assay: GAL4 reporter gene assay in CV-1 cells, murine PPARγ; type: cell-based; conditions: second 'Murine PPAR-•' line (taken as γ), pG5luc reporter
[9] = test system: GAL4-murine PPARδ fusion protein; conditions: third 'Murine PPAR-•' line (taken as δ); CV-1 cells, pG5luc reporter
[10] = target: T1, PPARδ (Homo sapiens, UniProt Q03181); conditions: FEBS Letters 473 (2000) 333-336; read-out: affinity to PPARδ (Ki); cited from earlier work
T1 sequence (Q03181 1-441): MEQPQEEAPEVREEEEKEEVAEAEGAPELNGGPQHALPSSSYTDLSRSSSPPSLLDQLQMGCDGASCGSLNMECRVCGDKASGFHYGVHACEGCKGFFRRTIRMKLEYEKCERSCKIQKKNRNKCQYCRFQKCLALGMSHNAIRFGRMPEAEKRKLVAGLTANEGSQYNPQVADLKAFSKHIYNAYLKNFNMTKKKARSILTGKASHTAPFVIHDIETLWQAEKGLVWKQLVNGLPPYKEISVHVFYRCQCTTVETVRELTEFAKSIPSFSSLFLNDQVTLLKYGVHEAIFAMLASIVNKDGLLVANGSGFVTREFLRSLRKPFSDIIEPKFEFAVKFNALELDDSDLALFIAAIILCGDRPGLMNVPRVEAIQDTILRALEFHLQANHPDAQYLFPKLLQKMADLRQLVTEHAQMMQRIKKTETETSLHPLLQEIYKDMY

[11] = target: T2, PPARγ (Homo sapiens, UniProt P37231); conditions: FEBS Letters 473 (2000) 333-336; read-out: affinity to PPARγ (Ki); cited from earlier work
T2 sequence (P37231 1-505): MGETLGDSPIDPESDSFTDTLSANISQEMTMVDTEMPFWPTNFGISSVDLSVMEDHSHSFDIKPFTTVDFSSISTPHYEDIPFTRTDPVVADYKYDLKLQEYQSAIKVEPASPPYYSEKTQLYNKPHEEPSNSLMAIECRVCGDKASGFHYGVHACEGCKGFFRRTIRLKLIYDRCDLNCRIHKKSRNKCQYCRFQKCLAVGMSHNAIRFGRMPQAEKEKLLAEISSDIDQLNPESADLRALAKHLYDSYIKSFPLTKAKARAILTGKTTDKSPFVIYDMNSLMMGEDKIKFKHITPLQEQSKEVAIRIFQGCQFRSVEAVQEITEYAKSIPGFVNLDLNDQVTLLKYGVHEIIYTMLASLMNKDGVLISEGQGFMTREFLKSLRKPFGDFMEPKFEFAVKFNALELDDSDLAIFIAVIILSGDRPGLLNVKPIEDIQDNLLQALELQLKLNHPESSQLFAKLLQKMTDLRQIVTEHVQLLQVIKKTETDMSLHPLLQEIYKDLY

[12] = 2nd '+' line (presumably 0.1 μM)
[13] = 4th '+' line (presumably 10 μM)
[14] = 5th '+' line (presumably 100 μM)

Row | Compound | LDH release A490 [1, 12] | LDH release A490 ([1]; 3rd '+' line (presumably 1 μM)) | LDH release A490 [1, 13] | LDH release A490 [1, 14] | LDH release A490 ([2]; compound 0.1 μM) | LDH release A490 ([2]; compound 1 μM) | LDH release A490 ([2]; compound 10 μM) | LDH release A490 ([2]; compound 100 μM) | cytotoxicity (in words) [2] | DA content per wet weight of striate body ([3]; 12 μg/head/day) | DOPAC content per wet weight of striate body ([3]; 12 μg/head/day) | HVA content per wet weight of striate body ([3]; 12 μg/head/day) | DA content per wet weight of striate body ([3]; 120 μg/head/day) | DOPAC content per wet weight of striate body ([3]; 120 μg/head/day) | HVA content per wet weight of striate body ([3]; 120 μg/head/day) | further results
1 | Cc1cc(SCc2sc(-c3ccc(C(F)(F)F)cc3)nc2C)ccc1OCC(=O)O [GW501516] | 0.6225 ± 0.0229 | 0.5750 ± 0.0212 | 0.3325 ± 0.0259 | 0.6675 ± 0.0328 | 0.3633 ± 0.0153 | 0.3222 ± 0.0207 | 0.2981 ± 0.0154 | 0.7969 ± 0.0251 | exerted cytotoxicity | 7.41 ± 1.27 ng/mg tissue | 0.39 ± 0.06 ng/mg tissues | 0.82 ± 0.08 ng/mg tissue | 8.98 ± 1.20 ng/mg tissue | 0.44 ± 0.04 ng/mg tissues | 0.90 ± 0.05 ng/mg tissue | action of suppressing the decrease of the contents of DA, DOPAC and HVA (in words) ([3]; any of the doses (12 or 120 μg/head/day)): greatly observed
2 | CCCc1c(OCCCOc2ccc(OCC(=O)O)cc2)ccc(C(C)=O)c1O [L-165041, 4-[3-[2-propyl-3-hydroxy-4-acetyl]phenoxy]propyloxyphenoxy acetic acid] | 0.6758 ± 0.0183 | 0.6295 ± 0.0139 | 0.6029 ± 0.0135 | 0.2987 ± 0.0128 | 0.3980 ± 0.0141 | 0.3874 ± 0.0120 | 0.3133 ± 0.0024 | 0.6709 ± 0.0093 | exerted cytotoxicity | 5.06 ± 1.08 ng/mg tissue | 0.28 ± 0.05 ng/mg tissues | 0.66 ± 0.08 ng/mg tissue | 7.81 ± 0.93 ng/mg tissue | 0.44 ± 0.07 ng/mg tissues | 0.91 ± 0.10 ng/mg tissue | Concentration for action exertion [4]: 10 M; Concentration for action exertion [5]: 10 M; Concentration for action exertion [6]: 0.1 M; Concentration for action exertion [7]: >100 M; Concentration for action exertion [8]: 10 M; Resumption ratio of content of DA ([3]; 12 μg/head/day): 0.42 ± 10.20%; Resumption ratio of content of DOPAC ([3]; 12 μg/head/day): −1.45 ± 10.89%; Resumption ratio of content of HVA ([3]; 12 μg/head/day): −4.65 ± 12.88%; Resumption ratio of content of DA ([3]; 120 μg/head/day): 26.42 ± 8.83 %; Resumption ratio of content of DOPAC ([3]; 120 μg/head/day): 32.22 ± 15.41%; Resumption ratio of content of HVA ([3]; 120 μg/head/day): 36.58 ± 16.68%; action of suppressing the decrease of the contents of DA, DOPAC and HVA (in words) ([3]; dose of 12 μg/head/day): not so greatly observed; action of suppressing the decrease of the contents of DA, DOPAC and HVA (in words) ([3]; dose of 120 μg/head/day): greatly observed; Concentration for action exertion [9]: 0.1 M; Ki [10]: 6 nM; Ki [11]: 730 nM
